Where a chain is given by its changes, count along the chain named. Read-outs that look alike come from different tables or passages of the source.
What was measured:
Assay type in all cases: biochemical
[1] = target: T1, wild-type human Core 2 GlcNAcT1 (Homo sapiens, UniProt Q02742, I152V); test: Activity of stored recombinant enzyme after addition of reducing agents; settings: following storage of expressed and purified recombinant enzyme
T1 construct: S-tag (N, cleaved yes); made in house
T1 sequence (Q02742 37-428 I152V): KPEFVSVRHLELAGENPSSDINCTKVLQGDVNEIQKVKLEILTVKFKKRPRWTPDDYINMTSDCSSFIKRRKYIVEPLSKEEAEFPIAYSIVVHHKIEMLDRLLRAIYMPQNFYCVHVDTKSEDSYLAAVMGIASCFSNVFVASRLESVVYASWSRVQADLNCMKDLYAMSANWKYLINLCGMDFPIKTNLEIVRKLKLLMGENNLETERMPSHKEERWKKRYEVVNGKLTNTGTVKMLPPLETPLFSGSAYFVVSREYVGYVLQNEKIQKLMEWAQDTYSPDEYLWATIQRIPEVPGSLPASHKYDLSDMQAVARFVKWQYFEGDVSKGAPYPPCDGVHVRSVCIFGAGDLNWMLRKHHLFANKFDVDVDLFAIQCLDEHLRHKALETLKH
Excerpt: (§1) Iodoacetamide, 5,5′-dithiobis(2-nitrobenzoic acid) (DTNB), and N-ethylmaleimide causes inhibition of wild-type human and mouse Core 2 GlcNAcT1s. […] The blocking of this residue by oxidation, alkylation, or heavy metal binding causes inhibition of the enzyme.

[2] = target: T2, wild-type mouse Core 2 GlcNAcT1 (Mus musculus, UniProt Q09324, H362D/H420R/R88W/S191T/T260A); test: as above; settings: following storage of expressed and purified recombinant enzyme
T2 construct: made in house; host or cells: COS-7 or CHO-S cells, secreted into the culture supernatant, purified on anti-FLAG M1 beads
T2 sequence (Q09324 34-428 R88W/S191T/T260A/H362D/H420R): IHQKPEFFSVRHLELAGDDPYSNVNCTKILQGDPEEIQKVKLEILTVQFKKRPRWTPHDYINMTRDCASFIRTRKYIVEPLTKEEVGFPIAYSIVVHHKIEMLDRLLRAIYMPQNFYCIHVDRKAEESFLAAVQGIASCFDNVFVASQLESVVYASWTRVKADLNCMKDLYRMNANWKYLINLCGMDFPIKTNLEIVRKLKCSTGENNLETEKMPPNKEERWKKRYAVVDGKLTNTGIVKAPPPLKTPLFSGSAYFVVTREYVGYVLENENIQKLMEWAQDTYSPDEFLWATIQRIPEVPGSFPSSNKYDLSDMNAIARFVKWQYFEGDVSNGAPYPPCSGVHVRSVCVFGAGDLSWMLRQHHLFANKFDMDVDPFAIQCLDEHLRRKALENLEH
Excerpt: as §1

[3] = target: T3, C217S human Core 2 GlcNAcT1 (Homo sapiens, UniProt Q02742, C217S); test: Effects of sulfhydryl reagents and heavy metals on enzyme activity (% activity); settings: relatively high concentrations (FIG. 2), 37° C., 2.0 hours
T3 construct: S-tag (N, cleaved yes); made in house
T3 sequence (Q02742 37-428 C217S): T1 sequence (Q02742 37-428 I152V) with V116I, C181S
Method: (§2) Wild-type and C217S, human and mouse, Core 2 GlcNAcT1s were dissolved in an aqueous solution containing 30 mM 2-morpholinoethanesulfonic acid (MES) buffer (pH 6.7) and 1.0 mg/ml bovine serum albumin (BSA). Iodoacetamide (IAA), 5,5′-dithiobis(2-nitrobenzoic acid) (DTNB), N-ethylmaleimide (NEM), HgCl2 and ZnSO4 were added at the concentrations listed on FIGS. 1 and 2. 1.0 mM UDP-GlcNAc, 0.50 mM Gal(β1-3)GalNAcα-pnp, (3H)UDP-GlcNAc (0.50 μCi) and 30 mM MES buffer (pH 6.7) were added as well. The solutions were incubated at 37° C. for 2.0 hours. The (^3H)UDP-GlcNAc and (^3H)GlcNAc(β1-6)Gal(β1-3)GalNAcα-pnp were separated by solid-phase extraction and the DPM of (^3H)Gal(β1-3) GlcNAc(β1-6)GalNAcα-pnp were counted by liquid scintillation. A solution containing all components with exception of enzymes was prepared to measure background levels. The % activity was calculated as follows: (DPMinhibitor−DPMbackground)/(DPMcontrol−DPMbackground)*100. All assays were performed in duplicate. The results are plotted in FIGS. 1 and 2.

[4] = target: T4, C217S mouse Core 2 GlcNAcT1 (Mus musculus, UniProt Q09324, C217S); test: as above; settings: relatively high concentrations (FIG. 1), 37° C., 2.0 hours
T4 construct: made in house; host or cells: CHO-S or COS-7 cells, secreted, purified on anti-FLAG M1 beads
T4 sequence (Q09324 with tags, fused parts or gaps R88W/S191T/C217S/T260A/H362D/H420R): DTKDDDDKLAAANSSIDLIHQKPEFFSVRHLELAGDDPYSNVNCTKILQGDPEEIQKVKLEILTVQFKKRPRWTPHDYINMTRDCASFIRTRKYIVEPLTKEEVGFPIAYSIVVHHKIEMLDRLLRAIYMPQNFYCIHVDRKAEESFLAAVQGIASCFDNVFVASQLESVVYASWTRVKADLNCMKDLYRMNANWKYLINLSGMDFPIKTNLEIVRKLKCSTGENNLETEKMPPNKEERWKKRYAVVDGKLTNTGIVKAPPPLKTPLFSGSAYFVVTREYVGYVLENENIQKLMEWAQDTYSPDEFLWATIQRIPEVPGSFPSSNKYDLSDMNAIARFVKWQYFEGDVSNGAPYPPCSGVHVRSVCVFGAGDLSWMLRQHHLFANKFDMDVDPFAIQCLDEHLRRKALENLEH
Method: as §2

[5] = target: T1, wild-type human Core 2 GlcNAcT1; test: as above; settings: 37° C., 2.0 hours, concentrations listed on FIG. 2
Method: as §2

[6] = target: T5, wild-type mouse Core 2 GlcNAcT1 (Mus musculus, UniProt Q09324); test: as above; settings: 37° C., 2.0 hours, concentrations listed on FIG. 1
T5 construct: made in house; host or cells: COS-7 or CHO-S cells, secreted into the culture supernatant, purified on anti-FLAG M1 beads
T5 sequence (Q09324 34-428 R88W/S191T/T260A/H362D/H420R): T2 sequence (Q09324 34-428 R88W/S191T/T260A/H362D/H420R)
Method: as §2

[7] = target: T3, C217S human Core 2 GlcNAcT1; test: Kinetic characterization assays (standard enzyme assay with titrated substrate or product); settings: for inhibitory potential of the reaction product, C217S compared with wild-type: human enzymes, titrated product in standard assay; for Km: C217S human enzyme
Method: (§3) Standard enzyme assays for wild-type and mutant (217Cys→Ser) Core 2 GlcNAcT1 were carried out in a 30 μl solution containing 30 mM 2-morpholinoethanesulfonic acid (MES) buffer (pH 6.7), 1.0 mM UDP-GlcNAc (donor substrate), 1.0 μCi UDP-6-[3H]GlcNAc, 0.50 mM (Galβ1-3)GalNAcα-pNp (acceptor substrate or AS), 1 mg/ml BSA, and 15-25 μU (1 unit=1 micromole/min) per assay of recombinant Core 2 GlcNAcT1 protein. The reaction was incubated for 2.0 hours at 37° C. and stopped by the addition of 460 μl of water. Reactions were frozen at −20° C. if they were not processed immediately. The reaction product Galβ1,3 [^3H]GlcNAc(β1,6)GalNAcα-pNp was separated from unreacted UDP-6[^3H]GlcNAc by solid phase extraction using Waters Sep-Pak columns. Samples were eluted from the column with ethanol, added to 10 ml of scintillation fluid and radioactivity (DPM) was determined.
(§4) Km values were determined by running the standard assay conditions with the exception of the titration of the donor substrate UDP-GlcNAc concentration (for Km,DS) or AS concentration (for Km,AS). The IC50 values for the products UDP and GlcNAc(β1-6)Gal(β1-3)GalNAcα-pNp were determined by running the standard assay conditions and adding titrated product. The mechanism was determined by titrating both donor and acceptor substrates at the same time.

[8] = target: T4, C217S mouse Core 2 GlcNAcT1; test: as above; settings: for inhibitory potential of the reaction product, C217S compared with wild-type: mouse enzymes, titrated product in standard assay
Method: as §3, §4

[9] = target: T1, wild-type human Core 2 GlcNAcT1; test: as above
Method: as §3, §4

[10] = target: T2, wild-type mouse Core 2 GlcNAcT1; test: as above
Method: as §3, §4

[11] = target: T5, wild-type mouse Core 2 GlcNAcT1; test: as above; settings: Ordered Bi Bi mechanism, read-out: KD for the donor substrate
Method: as §3, §4

[12] = acceptor substrate titrated, read-out: Km value for the acceptor substrate
[13] = donor substrate titrated, read-out: Km value for the donor substrate

Compound | inhibition of enzyme activity [3] | inhibition of enzyme activity [4] | inhibition of enzyme activity [5] | inhibition of enzyme activity [6] | further results
O[C@@H](CS)[C@@H](O)CS (racemic) [DTT, 1,4-dithiothreitol] |  |  |  |  | change of enzyme activity after addition of reducing agent [1]: increase; change of enzyme activity after addition of reducing agent [2]: increase
O=C(O)c1cc(SSc2ccc([N+](=O)[O-])c(C(=O)O)c2)ccc1[N+](=O)[O-] [DTNB, 5,5′-dithiobis(2-nitrobenzoic acid)] | not inhibited | not inhibited | inhibition | inhibition | 
CC(=O)N[C@H]1[C@H](OC[C@H]2O[C@H](Oc3ccc([N+](=O)[O-])cc3)[C@H](NC(C)=O)[C@@H](O[C@@H]3O[C@H](CO)[C@H](O)[C@H](O)[C@H]3O)[C@H]2O)O[C@H](CO)[C@@H](O)[C@@H]1O [Gal(β1-3) GlcNAc(β1-6)GalNAcα-pNp] |  |  |  |  | inhibitory potential of the reaction product, C217S compared with wild-type [7]: the same for both enzymes; inhibitory potential of the reaction product, C217S compared with wild-type [8]: the same for both enzymes
CC(=O)N[C@H]1[C@@H](Oc2ccc([N+](=O)[O-])cc2)O[C@H](CO)[C@H](O)[C@@H]1O[C@@H]1O[C@H](CO)[C@H](O)[C@H](O)[C@H]1O [Gal(β1-3)GalNAcα-pNp] |  |  |  |  | Km [7, 12]: 320 µM; Km ([8]; C217S mouse enzyme, acceptor substrate titrated, read-out: Km value for the acceptor substrate): 130 µM; Km [9, 12]: 340 µM; Km [10, 12]: 150 µM
[Cl][Hg][Cl] [Hg^2+, HgCl2] | insensitive | did not affect | inhibit | inhibit | 
NC(=O)CI [Iodoacetamide] | not inhibited | not inhibited | inhibition | inhibition | 
CCN1C(=O)C=CC1=O [N-ethylmaleimide] | not inhibited | not inhibited | inhibition | inhibition | 
O=c1ccn([C@@H]2O[C@H](COP(=O)(O)OP(=O)(O)O)[C@@H](O)[C@H]2O)c(=O)[nH]1 [UDP] |  |  |  |  | inhibitory potential of the reaction product, C217S compared with wild-type [7]: the same for both enzymes; inhibitory potential of the reaction product, C217S compared with wild-type [8]: the same for both enzymes
O=S(=O)([O-])[O-].[Zn+2] [Zn^2+, ZnSO4] | insensitive to Hg^2+ only | did not affect | inhibit | inhibit | 
uridine diphospho-N-acetylglucosamine [UDP-GlcNAc] |  |  |  |  | Km [7, 13]: 1100 µM; Kd ([8]; C217S mouse enzyme, Ordered Bi Bi mechanism, read-out: KD for the donor substrate): 110 µM; Km ([8]; C217S mouse enzyme, donor substrate titrated, read-out: Km value for the donor substrate): 1500 µM; Km [9, 13]: 1200 µM; Kd [11]: 110 µM; Km [10, 13]: 1500 µM

Reference: patent US20050142574A1, “Mutants of core 2 B-1, 6-N-acetylglycosaminyltransferase” (Seikagaku Corporation and Glycodesign Holdings Ltd., priority 2003, published 2005)
